Results: patent US10682320B2, “Method for inhibiting osteoclast development” (West Virginia University, priority 2012, dated 2020)

Tests used:
Assay type in all cases: cell-based
[1] = biological target: T1, STIM I/Orai I interaction (Homo sapiens, UniProt Q13586); assay: 2-APB-induced STIM I ct translocation to plasma membrane; conditions: 2-APB 50 μM, as early as 5 seconds
T1 construct: the cytosolic fragment of STIM I (STIM 1 ct); expressed in transfected cells
Experimental: HEK293 cells, maintained in DMEM with 10% FBS, were transfected with YFP-STIM I using Lipofectamine 2000 (Invitrogen, Carlsbad, Calif.) for 5 h (37° C.; 5% CO2) followed by a 24-h recovery. Cells were placed in 140 mM NaCl, 5 mM KCl, 1 mM MgCl2, 10 mM glucose, 15 mM HEPES, 0.1% BSA, 2 mM CaCl2 and analyzed by confocal microscopy for STIM I puncta formation using a Nikon phase-fluorescence microscope with CCD detectors (Diagnostic instruments, Sterling Heights, Mich.). Phase or transmitted light microscopy used 10-40× objectives and red, green, and blue filters to assemble color images. Fluorescence images used 1.4 NA 40× oil objectives. Red fluorescence used excitation at 530-560 nm, a 575 nm dichroic minor, and 580-650 nm emission filter. Transfection data were analyzed using Nikon NIS Elements Imaging Software. The effect of DCPA on STIM I/Orai I association was determined in wild-type HEK293 cells transfected with STIM I-YFP as described in Wang Y, Deng X, Zhou Y, Hendron E, Mancarelia S, Ritchie M F, Tang X D, Baba Y, Kurosaki T, Mori Y, Soboloff J, Gill DL, “STIM protein coupling in the activation of Orai channels”, Proc Natl Acad Sci USA, Vol. 106, pages 7391-7396, 2009. Experiments were performed on a Leica DMI 6000B fluorescence microscope controlled by Slidebook Software (Intelligent Imaging Innovations, Denver, Colo.).

CRAC channel [2] = biological target: T2, CRAC channel (Homo sapiens, UniProt Q13586); assay: CRAC channel activity as measured by intracellular calcium influx; conditions: for effect on intracellular calcium influx and toxicity in relation to CRAC channel inhibition: DCPA metabolites
Excerpt: The metabolism of DCPA by acylamidase produces DCA as mentioned above. DCA is then metabolized to N—OH-DCA and 6-OH-DCA. Both N—OH-DCA and 6-OH-DCA contribute to the systemic toxicity associated with in vivo administration of DCPA. […] Thus, the CRAC channel inhibitory activity of DCPA is not attributable to any of these toxic metabolites. Given that the CRAC channel inhibition associated with DCPA was not due to the more toxic metabolites, the present invention discloses haloanilide compositions of Formula I, and salts thereof that are not metabolized to DCA but that have similar CRAC channel inhibitory qualities of DCPA:
[drawing 7] wherein X is either chlorine or bromine, Y is either hydrogen or an alkyl group having a carbon chain length from 1 to 5 carbon atoms, and R is an alkyl group having a carbon chain length from 1 to 5 carbon atoms, except wherein X is not chlorine when Y is hydrogen and R is an ethyl group. Synthesis routes for N-(3,4-dibromophenyl)propanamide [also referred to as “DBPA” or “N-(3,4-bibromophenyl)propionamide”], N-(3,4-dichlorophenyl)-N-methylpropanamide [also referred to as “N-Methyl Propanil”; or “N-Methyl-DCPA”; or “NMP”; or “NM Propanil”; or “N-(3,4-dichlorophenyl)-N-methylpropionamide”; or “N,N-Methyl, Propyl-CA” (CA=carboxamide)], 3,4-dichloro-N-methyl-N-isobutyramide [also referred to as “N-(3,4-dichlorophenyl)-N,2-dimethylpropanamide”; or “DNMI”], N-(3,4-dichlorophenyl)-2-dimethylpropanamide, N-(3,4-dichlorophenyl)isobutyramide [also referred to as “DNI” or “N-Isobutyl-CA” (CA=carboxamide)], and N-(3,4-dichlorophenyl)-N-methylisobutyramide [also referred to as “N,N-Me, Isobutyl-CA” (CA=carboxamide)]. Each of the haloanilide compositions of this invention have undergone in vitro toxicity testing on Jurkat cells—this is a T cell line that is sensitivity to toxic effects and thus, was used to determine the effect of the compounds on viability. Each of the compositions of Formula I are capable of inhibiting CRAC channel activity as measured by intracellular calcium influx. […] FIGS. 4 and 5 show chemical structures of preferred haloanilide compositions of this invention.

CRAC channel [3] = biological target: T2, CRAC channel; assay: CRAC channel activity by Fura-2 fluorescence in Jurkat cells after thapsigargin; parameters: endogenous in cells; host or cells: Jurkat cells; conditions: 100 uM, 10 minutes before thapsigargin
Experimental: Ratiometric imaging of intracellular Ca^2+ using fura-2 was as described (see, Zhou et al., 2009 above). Briefly, cells on coverslips, in cation safe solution (107 mM NaCl, 7.2 mM KCl, 1.2 mM MgCl2, 11.5 mM glucose, 20 mM HEPES-NaOH, pH 7.2) were loaded with fura-2 acetoxymethyl ester (2 μM) for 30 min at 24° C. Cells were washed and fluorescent probe was allowed to de-esterify for 30 min. From signal remaining after saponin permeabilization, ˜85% of the dye was confined to the cytoplasm (see, Ma H-T, Patterson R L. van Rossum D B. Birnbaumer L, Mikoshiba K, Gill D L, “Requirement of the inositol trisphosphate receptor for activation of store-operated Ca^2+ channels”, Science, Vol. 287, pages 1647-1651, 2000). Ca^2+ measurements were made using a Leica DMI 6000B fluorescence microscope controlled by Slidebook Software. Fluorescence emission at 505 nm was monitored while alternating between 340 and 380 nm excitation wavelengths at a frequency of 0.67 Hz; intracellular Ca^2+ measurements are shown as 340/380 nm emission ratios obtained from groups (35-45) of single cells. Measurements shown are representative a minimum of three independent experiments.
N-(3,4-dibromophenyl)propanamide]. Jurkat cells, a T cell line that is very sensitive to DCPA, was cultured with the indicated compounds, DCPA, DBPA, and ethanol (EtOH). CRAC channel activity was monitored using Fura-2 fluorescence using standard known techniques. Cells were incubated in each composition at 100 uM for 10 minutes prior to addition of the SERCA inhibitor thapsigargin (Tg) to induce SOCe. Decreased CRAC channel activity is clearly evident with DCPA and DBPA.
Jurkat cells, a T cell line that is very sensitive to DCPA, was cultured with the indicated compositions of the present invention, namely, DNI, NM Propanil, and DNMNI. CRAC channel activity was monitored using Fura-2 fluorescence using standard known techniques. Cells were incubated in each composition at 100 uM for 10 minutes prior to addition of the SERCA inhibitor thapsigargin (Tg) to induce SOCe. Decreased CRAC channel activity is clearly evident with each of the compositions of the present invention. […] Each of the compositions of this invention achieve the results achieved with the known DCPA but without the burden of toxicity of DCPA that would accompany further metabolism of DCPA.

[4] = test system: human monocytes differentiating into osteoclasts; assay: Human osteoclast differentiation in vitro (multinucleation, TRAP); conditions: 10 and 100 μM, 8 days after RANKL
Experimental: Human monocytes were isolated from normal buffy coat cells (60-80 ml) obtained with approval of institutional review boards by separation from donor blood, the white-cell depleted blood retained for clinical use. Human monocyte culture and differentiation were as reported (see, Yaroslayskly B B, Zhang Y, Kalla S E, Garcia P V, Sharrow A C, Li Y, Zaidi M, Wu C, Blair H C, “NO-dependent osteoclast motility: Reliance on cGMP-dependent protein kinase I and VASP”, J Cell Sci I, Vol. 18, pages 5479-5487, 2005). Briefly, human monocytes cells were isolated from buffy coat on ficoll lymphocyte separation media and cultured at ˜6×10^5 cells per cm^2 in monocyte maintenance medium, Dulbecco's modified essential medium (DMEM) with 20 ng/ml of human m-CSF and 10% FBS, for 24 hours (h). After 24 h in culture, the medium was changed to osteoclast differentiation medium containing in addition of human 50 ng/ml of RANKL, with the additional inhibitors or activators as specified in results. Human osteoclast cultures were generally maintained for a minimum of 7 days before analysis, or longer times as specified in results.
The effect of DCPA on human osteoclast differentiation 8 days after addition of RANKL was evaluated.

[5] = test system: Store-Operated Calcium Entry (SOCE); assay: Store-Operated Calcium Entry (SOCE) inhibition dose response (FIG. 10)

T2 sequence (Q13586 23-685): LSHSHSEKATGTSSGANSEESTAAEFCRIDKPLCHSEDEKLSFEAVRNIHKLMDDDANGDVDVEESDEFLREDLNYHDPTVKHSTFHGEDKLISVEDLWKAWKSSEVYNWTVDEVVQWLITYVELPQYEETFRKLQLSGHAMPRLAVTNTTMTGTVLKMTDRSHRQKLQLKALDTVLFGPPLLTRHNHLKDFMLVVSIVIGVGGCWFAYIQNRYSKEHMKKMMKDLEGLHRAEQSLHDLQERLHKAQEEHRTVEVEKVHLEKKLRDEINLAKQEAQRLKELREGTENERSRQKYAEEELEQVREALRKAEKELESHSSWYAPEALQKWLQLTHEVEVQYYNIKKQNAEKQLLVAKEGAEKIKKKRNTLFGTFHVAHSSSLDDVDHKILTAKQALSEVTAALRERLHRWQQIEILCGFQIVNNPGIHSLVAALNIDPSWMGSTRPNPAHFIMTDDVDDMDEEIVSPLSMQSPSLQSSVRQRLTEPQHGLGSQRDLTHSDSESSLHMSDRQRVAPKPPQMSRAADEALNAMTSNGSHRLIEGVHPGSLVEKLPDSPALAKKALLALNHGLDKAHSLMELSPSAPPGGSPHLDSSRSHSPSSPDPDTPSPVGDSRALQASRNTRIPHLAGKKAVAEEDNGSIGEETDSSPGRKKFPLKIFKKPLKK
T1 sequence (Q13586 235-685 limits assumed): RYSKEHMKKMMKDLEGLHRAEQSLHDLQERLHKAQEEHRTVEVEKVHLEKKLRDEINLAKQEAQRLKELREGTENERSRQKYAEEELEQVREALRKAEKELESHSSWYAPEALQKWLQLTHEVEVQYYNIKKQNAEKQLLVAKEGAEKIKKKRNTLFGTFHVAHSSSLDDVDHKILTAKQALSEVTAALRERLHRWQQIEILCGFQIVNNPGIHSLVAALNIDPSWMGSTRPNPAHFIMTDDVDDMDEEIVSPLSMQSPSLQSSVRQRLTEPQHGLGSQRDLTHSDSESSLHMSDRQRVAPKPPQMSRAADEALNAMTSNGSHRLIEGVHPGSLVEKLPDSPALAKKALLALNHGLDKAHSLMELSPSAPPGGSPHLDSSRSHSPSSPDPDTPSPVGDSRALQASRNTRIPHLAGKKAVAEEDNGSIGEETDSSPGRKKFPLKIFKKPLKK

SMILES	effect on intracellular calcium influx and toxicity in relation to CRAC channel inhibition (CRAC channel [2])	CRAC channel activity (CRAC channel [3])	further results
NCCOB(c1ccccc1)c1ccccc1 [2-APB, 2-aminoethoxydiphenylborate]	–	–	translocation of STIM I ct towards the PM [1]: significant translocation
Nc1cc(Cl)c(Cl)cc1O [6-OH-DCA]	not associated with CRAC channel inhibition	–	–
CCC(=O)Nc1ccc(Br)c(Br)c1 [DBPA, N-(3,4-dibromophenyl)propanamide]	–	Decreased	–
Nc1ccc(Cl)c(Cl)c1 [DCA, dichloroaniline]	not associated with CRAC channel inhibition	–	–
CCC(=O)Nc1ccc(F)c(F)c1 [DFPA, 3,4-difluoropropioanilide]	–	–	number of multinucleated cells [4]: no significant effect
CC(C)C(=O)Nc1ccc(Cl)c(Cl)c1 [DNI, N-(3,4-dichlorophenyl)isobutyramide]	–	Decreased	–
CC(C)C(=O)N(C)c1ccc(Cl)c(Cl)c1 [DNMNI, N-(3,4-dichlorophenyl)-N-methylisobutyramide]	–	Decreased	–
CCC(=O)N(C)c1ccc(Cl)c(Cl)c1 [NMP, N-(3,4-dichlorophenyl)-N-methylpropanamide]	–	Decreased	IC50 ([5]; FIG. 10B): 104 µM; dose response compared with known DCPA ([5]; doses 3 μM to 1 mM, FIG. 10A): at least equal; inhibition of CRAC channel activity as measured by intracellular calcium influx (CRAC channel [2]): effective at lower concentrations
ONc1ccc(Cl)c(Cl)c1 [N—OH-DCA]	not associated with CRAC channel inhibition	–	–
